Laboratory results reported in ChEMBL document CHEMBL4346676, “Base promoted synthesis of novel indole-dithiocarbamate compounds as potential anti-inflammatory therapeutic agents for treatment of acute lung injury” (Eur J Med Chem, 2019).
Calls of active or inactive are those of the source. The calls are words filed in the database; no cut-off is given here.

Columns and labels:
[1] = tested on: Peritoneal macrophage; assay: Cytotoxicity against C57BL/6J mouse Primary peritoneal macrophages assessed as cell viability at 1 uM measured after 24 hrs by MTT assay; assay type: cell-based
[2] = tested on: Peritoneal macrophage; assay: Antiinflammatory activity in C57BL/6J mouse Primary peritoneal macrophages assessed as inhibition of LPS-stimulated TNF-alpha expression preincubated for 30 mins followed by LPS stimulation measured after 24 hrs by ELISA; assay type: functional, cell-based
[3] = tested on: Peritoneal macrophage; assay: Antiinflammatory activity in C57BL/6J mouse Primary peritoneal macrophages assessed as inhibition of LPS-stimulated IL-6 expression preincubated for 30 mins followed by LPS stimulation measured after 24 hrs by ELISA; assay type: functional, cell-based
[4] = tested on: Peritoneal macrophage; assay: Antiinflammatory activity in C57BL/6J mouse Primary peritoneal macrophages assessed as suppression of LPS-stimulated IL-6 expression at 1 uM preincubated for 30 mins followed by LPS stimulation measured after 24 hrs by ELISA; assay type: functional, cell-based
[5] = tested on: Peritoneal macrophage; assay: Antiinflammatory activity in C57BL/6J mouse Primary peritoneal macrophages assessed as suppression of LPS-stimulated TNF-alpha expression at 1 uM preincubated for 30 mins followed by LPS stimulation measured after 24 hrs by ELISA; assay type: functional, cell-based
[6] = tested on: Mus musculus; assay: Antiinflammatory activity in LPS-induced C57BL/6 mouse model of acute lung injury assessed as inhibition of interstitial edema at 2.5 to 5 mg/kg, po pretreated for 3 days followed by LPS challenge measured after 6 hrs by hematoxylin and eosin staining based microscopic analysis; assay type: functional, organism-based
[7] = tested on: Mus musculus; assay: Antiinflammatory activity in po dosed C57BL/6 mouse model of acute lung injury assessed as reduction in LPS-stimulated IL-1beta mRNA expression pretreated for 3 days followed by LPS challenge measured after 6 hrs by SYBR green dye based RT-qPCR; assay type: functional, organism-based
[8] = tested on: Mus musculus; assay: Antiinflammatory activity in po dosed C57BL/6 mouse model of acute lung injury assessed as reduction in LPS-stimulated ICAM1 mRNA expression pretreated for 3 days followed by LPS challenge measured after 6 hrs by SYBR green dye based RT-qPCR analysis; assay type: functional, organism-based
[9] = tested on: Mus musculus; assay: Antiinflammatory activity in LPS-induced C57BL/6 mouse model of acute lung injury assessed as reduction in IL-1beta mRNA expression at 2.5 to 5 mg/kg, po pretreated for 3 days followed by LPS challenge measured after 6 hrs by SYBR green dye based RT-qPCR analysis; assay type: functional, organism-based
[10] = tested on: Mus musculus; assay: Antiinflammatory activity in LPS-induced C57BL/6 mouse model of acute lung injury assessed as reduction in TNF-alpha level in serum at 2.5 to 5 mg/kg, po pretreated for 3 days followed by LPS challenge measured after 6 hrs; assay type: functional, organism-based
[11] = tested on: Mus musculus; assay: Antiinflammatory activity in LPS-induced C57BL/6 mouse model of acute lung injury assessed as reduction in TNF-alpha level in BALF at 2.5 to 5 mg/kg, po pretreated for 3 days followed by LPS challenge measured after 6 hrs; assay type: functional, organism-based
[12] = tested on: Mus musculus; assay: Antiinflammatory activity in LPS-induced C57BL/6 mouse model of acute lung injury assessed as reduction in total protein level in BALF at 2.5 to 5 mg/kg, po pretreated for 3 days followed by LPS challenge measured after 6 hrs; assay type: functional, organism-based
[13] = tested on: Mus musculus; assay: Antiinflammatory activity in po dosed C57BL/6 mouse model of acute lung injury assessed as reduction in LPS-stimulated IL-6 mRNA expression pretreated for 3 days followed by LPS challenge measured after 6 hrs by SYBR green dye based RT-qPCR; assay type: functional, organism-based
[14] = tested on: Mus musculus; assay: Antiinflammatory activity in LPS-induced C57BL/6 mouse model of acute lung injury assessed as reduction in IL-6 level in BALF at 2.5 to 5 mg/kg, po pretreated for 3 days followed by LPS challenge measured after 6 hrs; assay type: functional, organism-based
[15] = tested on: Mus musculus; assay: Antiinflammatory activity in LPS-induced C57BL/6 mouse model of acute lung injury assessed as reduction in TNF-alpha mRNA expression at 2.5 to 5 mg/kg, po pretreated for 3 days followed by LPS challenge measured after 6 hrs by SYBR green dye based RT-qPCR analysis; assay type: functional, organism-based
[16] = tested on: Mus musculus; assay: Antiinflammatory activity in LPS-induced C57BL/6 mouse model of acute lung injury assessed as inhibition of interalveolar septal thickening at 2.5 to 5 mg/kg, po pretreated for 3 days followed by LPS challenge measured after 6 hrs by hematoxylin and eosin staining based microscopic analysis; assay type: functional, organism-based
[17] = tested on: Mus musculus; assay: Antiinflammatory activity in LPS-induced C57BL/6 mouse model of acute lung injury assessed as inhibition of destruction of alveolar hemorrhage at 2.5 to 5 mg/kg, po pretreated for 3 days followed by LPS challenge measured after 6 hrs by hematoxylin and eosin staining based microscopic analysis; assay type: functional, organism-based
[18] = tested on: Mus musculus; assay: Antiinflammatory activity in LPS-induced C57BL/6 mouse model of acute lung injury assessed as inhibition of destruction of alveolar structure at 2.5 to 5 mg/kg, po pretreated for 3 days followed by LPS challenge measured after 6 hrs by hematoxylin and eosin staining based microscopic analysis; assay type: functional, organism-based
[19] = tested on: Mus musculus; assay: Antiinflammatory activity in LPS-induced C57BL/6 mouse model of acute lung injury assessed as reduction in ICAM1 mRNA expression at 2.5 to 5 mg/kg, po pretreated for 3 days followed by LPS challenge measured after 6 hrs by SYBR green dye based RT-qPCR analysis; assay type: functional, organism-based
[20] = tested on: Mus musculus; assay: Antiinflammatory activity in LPS-induced C57BL/6 mouse model of acute lung injury assessed as reduction in total protein levels in BALF at 2.5 to 5 mg/kg, po pretreated for 3 days followed by LPS challenge measured after 6 hrs; assay type: functional, organism-based
[21] = tested on: Mus musculus; assay: Antiinflammatory activity in LPS-induced C57BL/6 mouse model of acute lung injury assessed as reduction in VCAM1 mRNA expression at 2.5 to 5 mg/kg, po pretreated for 3 days followed by LPS challenge measured after 6 hrs by SYBR green dye based RT-qPCR analysis; assay type: functional, organism-based
[22] = tested on: Mus musculus; assay: Antiinflammatory activity in po dosed C57BL/6 mouse model of acute lung injury assessed as reduction in LPS-stimulated VCAM1 mRNA expression pretreated for 3 days followed by LPS challenge measured after 6 hrs by SYBR green dye based RT-qPCR analysis; assay type: functional, organism-based
[23] = tested on: Mus musculus; assay: Antiinflammatory activity in LPS-induced C57BL/6 mouse model of acute lung injury assessed as reduction in neutrophil count in BALF at 2.5 to 5 mg/kg, po pretreated for 3 days followed by LPS challenge measured after 6 hrs; assay type: functional, organism-based
[24] = tested on: Mus musculus; assay: Antiinflammatory activity in LPS-induced C57BL/6 mouse model of acute lung injury assessed as reduction in IL-6 level in serum at 2.5 to 5 mg/kg, po pretreated for 3 days followed by LPS challenge measured after 6 hrs; assay type: functional, organism-based
[25] = tested on: Mus musculus; assay: Antiinflammatory activity in LPS-induced C57BL/6 mouse model of acute lung injury assessed as reduction in IL-6 mRNA expression at 2.5 to 5 mg/kg, po pretreated for 3 days followed by LPS challenge measured after 6 hrs by SYBR green dye based RT-qPCR; assay type: functional, organism-based
[26] = tested on: Mus musculus; assay: Antiinflammatory activity in po dosed C57BL/6 mouse model of acute lung injury assessed as reduction in LPS-stimulated TNF-alpha mRNA expression pretreated for 3 days followed by LPS challenge measured after 6 hrs by SYBR green dye based RT-qPCR; assay type: functional, organism-based
[27] = tested on: Mus musculus; assay: Antiinflammatory activity in LPS-induced C57BL/6 mouse model of acute lung injury assessed as inhibition of inflammatory cell infiltration at 2.5 to 5 mg/kg, po pretreated for 3 days followed by LPS challenge measured after 6 hrs by hematoxylin and eosin staining based microscopic analysis; assay type: functional, organism-based
[28] = tested on: Mus musculus; assay: Antiinflammatory activity in LPS-induced C57BL/6 mouse model of acute lung injury assessed as reduction in lung wet/dry ratio at 2.5 to 5 mg/kg, po pretreated for 3 days followed by LPS challenge measured after 6 hrs; assay type: functional, organism-based
[29] = tested on: Mus musculus; assay: Antiinflammatory activity in LPS-induced C57BL/6 mouse model of acute lung injury assessed as suppression of macrophage infiltration at 2.5 to 5 mg/kg, po pretreated for 3 days followed by LPS challenge measured after 6 hrs by F4/80/hematoxylin staining based microscopic analysis; assay type: functional, organism-based

## S=C(Sn1ccc2ccccc21)N1CCCCC1
[1]
  Activity: Non-Toxic

## CCN(CC)C(=S)Sn1ccc2ccccc21
[1]
  Activity: Non-Toxic

## Cc1c(C)n(SC(=S)N(C)C)c2ccccc12
[1]
  Activity: Non-Toxic

## CCN(CC)C(=S)Sn1c(C)cc2ccccc21
[1]
  Activity: Non-Toxic

## CN(C)C(=S)Sn1ccc2c(Br)cccc21
[1]
  Activity: Non-Toxic

## S=C(Sn1ccc2ccccc21)N(Cc1ccccc1)Cc1ccccc1
[1]
  Activity: Non-Toxic

## Cc1ccc2c(c1)cc(C)n2SC(=S)N(C)C
[1]
  Activity: Non-Toxic

## CC1CCN(C(=S)Sn2ccc3ccccc32)CC1
[1]
  Activity: Non-Toxic

## S=C(Sn1ccc2ccccc21)N1CCCCCC1
[2]
  IC50: 114 nM
  inhibition: Dose-dependent effect
[3]
  IC50: 87.6 nM
  inhibition: Dose-dependent effect
[4]
  inhibition: Active
[1]
  Activity: Non-Toxic
[5]
  inhibition: Active

## S=C(Sn1ccc2ccccc21)N1CCSCC1
[2]
  IC50: 14.1 nM
  inhibition: Dose-dependent effect
[3]
  IC50: 87.4 nM
  inhibition: Dose-dependent effect
[4]
  inhibition: Active
[1]
  Activity: Non-Toxic
[5]
  inhibition: Active

## CCOC(=O)C1CCCN(C(=S)Sn2ccc3ccccc32)C1 (configuration not stated)
[1]
  Activity: Non-Toxic

## CN(C)C(=S)Sn1ccc2cc(Cl)ccc21
[1]
  Activity: Non-Toxic

## CC1CCCC(C)N1C(=S)Sn1ccc2ccccc21 (configuration not stated)
[1]
  Activity: Non-Toxic

## COc1cccc2c1ccn2SC(=S)N(C)C
[2]
  IC50: 107 nM
  inhibition: Dose-dependent effect
[3]
  IC50: 70.7 nM
  inhibition: Dose-dependent effect
[4]
  inhibition: Active
[1]
  Activity: Non-Toxic
[5]
  inhibition: Active

## COc1ccc2c(ccn2SC(=S)N(C)C)c1
[1]
  Activity: Non-Toxic

## S=C(Sn1ccc2ccccc21)N1CCOCC1
[1]
  Activity: Non-Toxic

## CN(C)C(=S)Sn1ccc2cc(Br)ccc21
[1]
  Activity: Non-Toxic

## Cc1ccc2ccn(SC(=S)N(C)C)c2c1
[1]
  Activity: Non-Toxic

## CN(C)C(=S)Sn1ccc2cc(F)ccc21
[1]
  Activity: Non-Toxic

## S=C(Sn1ccc2ccccc21)N1CCCC1
[1]
  Activity: Non-Toxic

## CN1CCN(C(=S)Sn2ccc3ccccc32)CC1
[1]
  Activity: Non-Toxic

## Cc1cc2ccccc2n1SC(=S)N(C)C
[1]
  Activity: Non-Toxic

## S=C(Sn1ccc2ccccc21)N1CCc2ccccc2C1
[1]
  Activity: Non-Toxic

## S=C(Sn1ccc2ccccc21)N1CCC(Cc2ccccc2)CC1
[1]
  Activity: Non-Toxic

## CN(C)C(=S)Sn1ccc2ccc(N)cc21
[1]
  Activity: Non-Toxic

## Cc1cn(SC(=S)N(C)C)c2ccccc12
[2]
  IC50: 28.1 nM
  inhibition: Dose-dependent effect
[6]
  Activity: Active
[7]
  inhibition: Dose-dependent effect
[8]
  inhibition: Dose-dependent effect
[9]
  inhibition: Active
[3]
  IC50: 14.6 nM
  inhibition: Dose-dependent effect
[10]
  Activity: Active
[11]
  Activity: Active
[12]
  Activity: Active
[4]
  inhibition: Active
[13]
  inhibition: Dose-dependent effect
[14]
  Activity: Active
[15]
  inhibition: Active
[16]
  Activity: Active
[17]
  Activity: Active
[18]
  Activity: Active
[19]
  inhibition: Active
[20]
  Activity: Active
[21]
  inhibition: Active
[22]
  inhibition: Dose-dependent effect
[23]
  Activity: Active
[1]
  Activity: Non-Toxic
[24]
  Activity: Active
[25]
  inhibition: Active
[26]
  inhibition: Dose-dependent effect
[5]
  inhibition: Active
[27]
  Activity: Active
[28]
  Activity: Active
[29]
  Activity: Active

## CN(C)C(=S)Sn1ccc2ccccc21
[1]
  Activity: Non-Toxic

## COc1cccc2ccn(SC(=S)N(C)C)c12
[1]
  Activity: Non-Toxic

## COC(=O)c1ccc2ccn(SC(=S)N(C)C)c2c1
[1]
  Activity: Non-Toxic
